Measured values published in patent US11633416B1, “Oral formulations of CD73 compounds” (ARCUS BIOSCIENCES, INC., priority 2020, dated 2023).
Read-outs that look alike come from different tables or passages of the source.

Experiment: Oral exposure in cynomolgus monkeys, compound alone or with excipient in capsules; plasma by LC-MS/MS
Type: in vivo
Conditions: enteric capsule; for MRT inf: read-out: MRT0-∞
Excerpt: The influence of different excipients on the bioavailability of Compound (Ia), Compound 2 and Compound 3 in cynomolgus monkeys was investigated. The excipients tested were sodium phytate, sodium citrate, sodium EDTA, cyclodextrin, sodium taurocholate, sodium polystyrene sulfate, sodium caprate, sodium phosphate, carbomer 971P and palmitoyl carnitine chloride. Generally, an appropriate quantity (as indicated in Table 1) of Compound (Ia), Compound 2 or Compound 3 and an excipient were mixed to homogeneity and transferred to capsules for dosing. In one example, Compound (Ia) (500 mg assay, 1.063 correction factor applied for to account for purity) and 2.75 g of sodium phytate (Sigma) were combined in a mortar and pestle. The mixture was ground to homogeneity then 530 mg of the white powder was transferred to enteric capsules (Size 0) prior to dosing.
[…] Compound (Ia), Compound 2 or Compound 3, either alone, or with excipient, in an enteric capsule was administered via an oral pet piller. Blood samples were collected from a peripheral vessel at designated time points, and centrifuged to obtain plasma.
Plasma samples obtained at each time point from the subjects were prepared by protein precipitation. An aliquot of 50 μL sample was added with 150 μL acetonitrile containing an internal standard ([[[(2R,3S,4R,5R)-5-[6-chloro-4-[[(1S)-2,2,2-trideuterio-1-(2-fluorophenyl)ethyl]amino]pyrazolo[3,4-b]pyridin-1-yl]-3,4-dihydroxyoxolan-2-yl]-dideuteriomethoxy]-hydroxyphosphoryl]methylphosphonic acid, 200 ng/mL in Acetonitrile). The mixture was vortexed for 15 min and then centrifuged at 4500 rpm for 15 min at 4° C. (Sorvall Legend XTR centrifuge, Thermo Scientific, Langenselbold, Germany). 80 μL of the resulting supernatant was transferred into a new plate and mixed with 160 μL water followed by LC-MS/MS analysis.
• API 4000 mass spectrometer (Applied Biosystems, Foster City, Calif.) • Shimadzu Nexera X^2 UHPLC System (Shimadzu Scientific Instruments, Canby, Oreg.) Column: SHISEIDO CAPCELL PAK INERT ADME S3 (2.00 mm×50 mm, Part No. 79001) Mobile Phase A: 8.6 mM Triethylamine, 100 mM HFIP (1,1,1,3,3,3-Hexafluoro-2-propanol) in Water Mobile Phase B: 8.6 mM Triethylamine, and 100 mM HFIP in [Acetonitrile:water (95:5, v/v) Needle wash (weak & strong): Acetone:MeCN:Water (80:20:20, v/v/v) Flow Rate: 0.50 mL/min HPLC Gradient:
• Ionization Mode: Electrospray (ESI) • Detection Mode: Negative MRM (Q1/Q3 transitions: m/z 579.0/157.0 for Compound (Ia) or Compound 3; m/z 584.0/157.0 for Internal Standard); (Q1/Q3 transitions m/z 562.2/157.0 for Compound 2; m/z 584.0/157.0 for Internal Standard)

[1] = male, cynomolgus monkey, plasma, po, 50 mg, Table 2: oral, dose 50 mg, + 275 mg sodium phytate
[2] = male, cynomolgus monkey, plasma, po, 50 mg, Table 2: oral, dose 50 mg, neat
[3] = oral, dose 50 mg, with 275 mg sodium phytate (Sigma-Aldrich, ≥5 mol sodium/mol), fasted

C[C@H](Nc1cc(Cl)nc2c1cnn2[C@@H]1O[C@H](COP(=O)(O)CP(=O)(O)O)[C@@H](O)[C@H]1O)c1ccccc1F [Ia (•3Na), (((((2R,3S,4R,5R)-5-(6-chloro-4-(((S)-1-(2-fluorophenyl)ethyl)amino)-1H-pyrazolo[3,4-b]pyridin-1-yl)-3,4-dihydroxytetrahydrofuran-2-yl)methoxy)(hydroxy)phosphoryl)methyl)phosphonic acid]
Exposure Enhancement (Table 2: oral, dose 50 mg, + 275 mg sodium phytate versus neat): 9.1-fold
AUC(0-inf) (male, cynomolgus monkey, plasma, po, 10 mg, with 195 mg sodium citrate, 6 mg SDS, fasted): 1940 ng·h/mL
Cmax (male, cynomolgus monkey, plasma, po, 10 mg, oral, dose 10 mg, with 195 mg sodium citrate, 6 mg SDS, fasted, read-out: Cmax): 286 ng/mL
AUC(0-inf) [1]: 122000 ng·h/mL
AUC(0-t) [1]: 88000 ng·h/mL
Tmax [1]: 3 h
Cmax (male, cynomolgus monkey, plasma, po, 50 mg, Table 2: oral, dose 50 mg, + 275 mg sodium phytate, read-out: Cmax): 3680 ng/mL
MRT inf [1]: 35.8 h
AUC(0-inf) [2]: 13400 ng·h/mL
AUC(0-t) [2]: 10300 ng·h/mL
Tmax [2]: 1.75 h
Cmax (male, cynomolgus monkey, plasma, po, 50 mg, Table 2: oral, dose 50 mg, neat, read-out: Cmax): 631 ng/mL
MRT inf [2]: 29.2 h
AUC(0-inf) (male, cynomolgus monkey, plasma, po, 50 mg, neat, fasted): 13400 ng·h/mL
AUC(0-inf) (male, cynomolgus monkey, plasma, po, 50 mg, with 25 mg sodium taurocholate, fasted): 9300 ng·h/mL
AUC(0-inf) (male, cynomolgus monkey, plasma, po, 50 mg, with 50 mg sodium phytate (Sigma-Aldrich), fasted): 59700 ng·h/mL
AUC(0-inf) (male, cynomolgus monkey, plasma, po, 50 mg, with 100 mg Na-EDTA, fasted): 154000 ng·h/mL
AUC(0-inf) (male, cynomolgus monkey, plasma, po, 50 mg, with 100 mg cyclodextrin, fasted): 8230 ng·h/mL
AUC(0-inf) (male, cynomolgus monkey, plasma, po, 50 mg, with 100 mg palmitoyl carnitine chloride, fasted): 43400 ng·h/mL
AUC(0-inf) (male, cynomolgus monkey, plasma, po, 50 mg, with 195 mg sodium citrate, 3 mg SDS, fasted): 22200 ng·h/mL
AUC(0-inf) (male, cynomolgus monkey, plasma, po, 50 mg, with 195 mg sodium citrate, 6 mg SDS, non-fasted animal): 16500 ng·h/mL
AUC(0-inf) (male, cynomolgus monkey, plasma, po, 50 mg, with 195 mg sodium citrate, 6 mg sodium dodecyl sulfate (SDS), fasted): 38300 ng·h/mL
AUC(0-inf) (male, cynomolgus monkey, plasma, po, 50 mg, with 227.5 mg sodium caprate, fasted): 20300 ng·h/mL
AUC(0-inf) (male, cynomolgus monkey, plasma, po, 50 mg, with 275 mg sodium phytate (Sigma-Aldrich, ≥5 mol sodium/mol), fasted): 109000 ng·h/mL
AUC(0-inf) (male, cynomolgus monkey, plasma, po, 50 mg, with 275 mg sodium phytate, dodecasodium, fasted): 69400 ng·h/mL
AUC(0-inf) (male, cynomolgus monkey, plasma, po, 50 mg, with 275 mg sodium phytate, hexasodium, fasted): 152000 ng·h/mL
AUC(0-inf) (male, cynomolgus monkey, plasma, po, 50 mg, with 325 mg sodium polystyrene sulfate, fasted): 41400 ng·h/mL
AUC(0-inf) (male, cynomolgus monkey, plasma, po, 50 mg, with 400 mg sodium phosphate, fasted): 20500 ng·h/mL
AUC(0-inf) (male, cynomolgus monkey, plasma, po, 50 mg, with 7% w/w carbomer 971P, fasted): 41300 ng·h/mL
Cmax (male, cynomolgus monkey, plasma, po, 50 mg, oral, dose 50 mg, neat, fasted, read-out: Cmax): 631 ng/mL
Cmax (male, cynomolgus monkey, plasma, po, 50 mg, oral, dose 50 mg, with 25 mg sodium taurocholate, fasted, read-out: Cmax): 455 ng/mL
Cmax (male, cynomolgus monkey, plasma, po, 50 mg, oral, dose 50 mg, with 50 mg sodium phytate (Sigma-Aldrich), fasted, read-out: Cmax): 1650 ng/mL
Cmax (male, cynomolgus monkey, plasma, po, 50 mg, oral, dose 50 mg, with 100 mg Na-EDTA, fasted, read-out: Cmax): 6840 ng/mL
Cmax (male, cynomolgus monkey, plasma, po, 50 mg, oral, dose 50 mg, with 100 mg cyclodextrin, fasted, read-out: Cmax): 526 ng/mL
Cmax (male, cynomolgus monkey, plasma, po, 50 mg, oral, dose 50 mg, with 100 mg palmitoyl carnitine chloride, fasted, read-out: Cmax): 3660 ng/mL
Cmax (male, cynomolgus monkey, plasma, po, 50 mg, oral, dose 50 mg, with 195 mg sodium citrate, 3 mg SDS, fasted, read-out: Cmax): 922 ng/mL
Cmax (male, cynomolgus monkey, plasma, po, 50 mg, oral, dose 50 mg, with 195 mg sodium citrate, 6 mg SDS, non-fasted animal, read-out: Cmax): 863 ng/mL
Cmax (male, cynomolgus monkey, plasma, po, 50 mg, oral, dose 50 mg, with 195 mg sodium citrate, 6 mg sodium dodecyl sulfate (SDS), fasted, read-out: Cmax): 1520 ng/mL
Cmax (male, cynomolgus monkey, plasma, po, 50 mg, oral, dose 50 mg, with 227.5 mg sodium caprate, fasted, read-out: Cmax): 912 ng/mL
Cmax (male, cynomolgus monkey, plasma, po, 50 mg, oral, dose 50 mg, with 275 mg sodium phytate (Sigma-Aldrich, ≥5 mol sodium/mol), fasted, read-out: Cmax): 3570 ng/mL
Cmax (male, cynomolgus monkey, plasma, po, 50 mg, oral, dose 50 mg, with 275 mg sodium phytate, dodecasodium, fasted, read-out: Cmax): 2970 ng/mL
Cmax (male, cynomolgus monkey, plasma, po, 50 mg, oral, dose 50 mg, with 275 mg sodium phytate, hexasodium, fasted, read-out: Cmax): 4440 ng/mL
Cmax (male, cynomolgus monkey, plasma, po, 50 mg, oral, dose 50 mg, with 325 mg sodium polystyrene sulfate, fasted, read-out: Cmax): 1420 ng/mL
Cmax (male, cynomolgus monkey, plasma, po, 50 mg, oral, dose 50 mg, with 400 mg sodium phosphate, fasted, read-out: Cmax): 700 ng/mL
Cmax (male, cynomolgus monkey, plasma, po, 50 mg, oral, dose 50 mg, with 7% w/w carbomer 971P, fasted, read-out: Cmax): 1480 ng/mL
AUC(0-inf) (male, cynomolgus monkey, plasma, po, 100 mg, with 275 mg sodium phytate (Sigma-Aldrich), fasted): 237000 ng·h/mL
Cmax (male, cynomolgus monkey, plasma, po, 100 mg, oral, dose 100 mg, with 275 mg sodium phytate (Sigma-Aldrich), fasted, read-out: Cmax): 5760 ng/mL
Exposure Enhancement (oral, dose 50 mg, with 50 mg sodium phytate (Sigma-Aldrich), relative to 50 mg Ia ( 3Na) without absorption enhancer): 4.5-fold^b
Exposure Enhancement (oral, dose 50 mg, with 100 mg Na-EDTA, relative to 50 mg Ia ( 3Na) without absorption enhancer): 11.5-fold^b
Exposure Enhancement (oral, dose 50 mg, with 100 mg palmitoyl carnitine chloride, relative to 50 mg Ia ( 3Na) without absorption enhancer): 3.2-fold^b
Exposure Enhancement (oral, dose 50 mg, with 195 mg sodium citrate, 3 mg SDS, relative to 50 mg Ia ( 3Na) neat): 1.7-fold
Exposure Enhancement (oral, dose 50 mg, with 195 mg sodium citrate, 6 mg SDS, non-fasted animal, relative to 50 mg Ia ( 3Na) without absorption enhancer): 1.2-fold^b
Exposure Enhancement (oral, dose 50 mg, with 195 mg sodium citrate, 6 mg SDS, relative to 50 mg Ia ( 3Na) without absorption enhancer): 2.9-fold^b
Exposure Enhancement (oral, dose 50 mg, with 227.5 mg sodium caprate, relative to 50 mg Ia ( 3Na) without absorption enhancer): 1.5-fold^b
Exposure Enhancement (oral, dose 50 mg, with 275 mg sodium phytate (Sigma-Aldrich), relative to 50 mg Ia ( 3Na) without absorption enhancer): 9.1-fold^b
Exposure Enhancement (oral, dose 50 mg, with 275 mg sodium phytate (Sigma-Aldrich), relative to 50 mg Ia ( 3Na) without absorption enhancer, listed as Ia ( 3Na)): 8.1-fold^b
AUC0-∞ [3]: 122,000 h*ng/mL
Cmax [3]: 3,680 ng/mL
Exposure Enhancement (oral, dose 50 mg, with 275 mg sodium phytate, dodecasodium, relative to 50 mg Ia ( 3Na) without absorption enhancer): 5.2-fold^b
Exposure Enhancement (oral, dose 50 mg, with 275 mg sodium phytate, hexasodium, relative to 50 mg Ia ( 3Na) without absorption enhancer): 11.4-fold^b
Exposure Enhancement (oral, dose 50 mg, with 325 mg sodium polystyrene sulfate, relative to 50 mg Ia ( 3Na) without absorption enhancer): 3.1-fold^b
Exposure Enhancement (oral, dose 50 mg, with 400 mg sodium phosphate, relative to 50 mg Ia ( 3Na) without absorption enhancer): 1.9-fold^b
Exposure Enhancement (oral, dose 50 mg, with 7% w/w carbomer 971P, relative to 50 mg Ia ( 3Na) without absorption enhancer): 3.1-fold^b
